Data set [1] can be described thus: Penetration through enzymatically isolated apple leaf cuticles (20° C., 60% rh). The conditions noted are these: 0.1 g/l. In kind it is in vitro ADME, apple trees of the cultivar Golden Delicious. How it is done: (§1) In this test, the penetration of active compounds through enzymatically isolated cuticles of apple tree leaves is measured.
(§2) Use is made of leaves which, when fully developed, are cut from apple trees of the cultivar Golden Delicious. The cuticles are isolated by • initially filling leaf discs punched out and stained with dye on the underside by vacuum infiltration with a pectinase solution (0.2 to 2% strength) buffered to a pH between 3 and 4, • then adding sodium azide and • allowing the leaf discs treated in this manner to stand until the original leaf structure has dissolved and the non-cellular cuticles have detached.
(§3) Only the cuticles, free from hairs and stoma, of the upper sides of the leaves are then used. They are washed repeatedly alternating with water and a buffer solution of pH 7. The clean cuticles obtained are then mounted on Teflon plates and smoothed and dried with a gentle stream of air.
(§4) In the next step, the cuticle membranes obtained in this manner are placed into stainless steel diffusion cells (=transport chambers) for membrane transport studies. To this end, the cuticles are placed with a pincette into the centre of the edges, coated with silicone fat, of the diffusion cells and closed with a ring, which is also treated with fat. The arrangement is chosen such that the morphological outside of the cuticles is facing outwards, i.e. exposed to air, whereas the original inside is facing the interior of the diffusion cell.
(§5) The diffusion cells are filled with a 30% strength ethylene glycol/water solution. To determine the penetration, in each case 10 μl of the spray liquor of the composition below are applied to the outside of the cuticles. The spray liquor is prepared using local tap water of medium hardness.
After the application of the spray liquors, the water is allowed to evaporate and the chambers are inverted and placed into thermostatic tubs in which temperature and atmospheric humidity over the cuticles can be adjusted using a gentle stream of air onto the cuticles with the spray coating (20° C., 60% rh). At regular intervals, an autosampler takes aliquots and the active compound content is determined by HPLC.
(§6) The stated numbers are average values of 8 to 10 measurements. It is clearly evident that even the ammonium salts on their own improve the penetration markedly, and that, together with RME, a superadditive (synergistic) effect is present.

The test system of data set [2] is Myzus persicae. As to the kind of experiment: Myzus persicae test (activity boost through ammonium salts and penetrants). In kind it is in vivo, green peach aphid (Myzus persicae). The note with it: for Kill (%) after 6 d +AS + RME per 1000 ppm: 1000 ppm each; for Kill (%) after 6 d: no additive, bell pepper plants, spray. How it is done:
(§7) Solvent: 7 parts by weight of dimethylformamide
(§8) Emulsifier: 2 parts by weight of alkylaryl polyglycol ether
To produce a suitable preparation of active compound, 1 part by weight of active compound is mixed with the stated amounts of solvent and emulsifier, and the concentrate is diluted with water to the desired concentration. For application with ammonium salts or phosphonium salts and penetration promoters (rapeseed oil methyl ester 500 EW) these are in each case added in a concentration of 1000 ppm to the spray liquor.
Bell pepper plants (Capsicum annuum) heavily infested by the green peach aphid (Myzus persicae) are sprayed to runoff point with the preparation of active compound at the desired concentration.
After the desired period of time, the kill in % is determined. 100% means that all animals have been killed; 0% means that none of the animals have been killed.

For data set [3], the system named is LOLRI. As to the kind of experiment: Herbicidal post-emergence action. In kind it is in vivo, Annual Ryegrass (resistant). The note with it: 6.25 g of a.i./ha, 28 days after application. On the procedure: (§9) Seeds of monocotyledonous weed plants are placed in sandy loam in wood fibre pots, covered with soil and cultivated in a greenhouse under good growth conditions. 3-4 weeks after sowing, the test plants are treated at the two- to three-leaf stage. The test compound, formulated as a wettable powder (WP), is then, at various dosages with a water application rate of 300 l/ha (converted), with the stated adjuvants added, sprayed onto the green parts of the plants. After the test plants have been kept in the greenhouse under optimum growth conditions for about 4 weeks, the effect of the preparations is rated visually in comparison to untreated controls (herbicidal effect in percent: 100% effect=the plants have died, 0% effect=like control plants).

The test system of data set [4] is ALOMY. As to the kind of experiment: Herbicidal post-emergence action. In kind it is in vivo, Blackgrass (not resistant). The note with it: 6.25 g of a.i./ha, 28 days after application. How it is done:
as §9

The subject of data set [5] is LOLMU. As to the kind of experiment: Herbicidal post-emergence action. In kind it is in vivo, Italian Ryegrass. The conditions noted are these: 6.25 g of a.i./ha, 28 days after application. On the procedure: as §9
The test system of data set [6] is ALOMY (Peldon). Put plainly: Herbicidal post-emergence action. The class given is in vivo, Blackgrass (resistant). The note with it: 6.25 g of a.i./ha, 28 days after application. On the procedure: as §9
Data set [7] can be described thus: Penetration through enzymatically isolated apple leaf cuticles (35° C., 60% rh). The class given is in vitro ADME, apple trees of the cultivar Golden Delicious. The note with it: 0.2 g/l; for Penetration after 48 h/% EC: 500 ppm in DMF/emulsifier W 7:1 (w/w), no additive; for Penetration after 48 h/% EC + AS (0.7 g/l): with ammonium sulphate; for Penetration after 48 h/% EC + RME (1 g/l): with rapeseed oil methyl ester; for Penetration after 48 h/% EC + RME (1 g/l) + AS (0.7 g/l): with rapeseed oil methyl ester and ammonium sulphate. On the procedure:
as §1, §2, §3, §4, §5
After the application of the spray liquors, the water is allowed to evaporate and the chambers are inverted and placed into thermostatic tubs in which temperature and atmospheric humidity over the cuticles can be adjusted using a gentle stream of air onto the cuticles with the spray coating (35° C., 60% rh). At regular intervals, an autosampler takes aliquots and the active compound content is determined by HPLC.
as §6

In data set [8] the test system is Aphis gossypii. As to the kind of experiment: Aphis gossypii test. In kind it is in vivo, cotton aphid (Aphis gossypii). The conditions noted are these: for Kill (%) after 6 d +AS + RME per 1000 ppm: 1000 ppm each; for Kill (%) after 6 d: no additive, cotton plants, spray. On the procedure:
as §7, §8
To produce a suitable preparation of active compound, 1 part by weight of active compound is mixed with the stated amounts of solvent and emulsifier, and the concentrate is diluted with emulsifier-containing water to the desired concentration. For application with ammonium salts or phosphonium salts and penetration promoters (rapeseed oil methyl ester 500 EW) these are in each case added in a concentration of 1000 ppm of a.i. to the spray liquor.
Cotton plants (Gossypium hirsutum) which are heavily infested by the cotton aphid (Aphis gossypii) are sprayed to runoff point with the preparation of active compound at the desired concentration.
After the desired period of time, the kill in % is determined. 100% means that all aphids have been killed; 0% means that none of the aphids have been killed.

[9] abbreviates: 20 ppm active compound + ammonium sulphate 1000 ppm.
[10] abbreviates: 20 ppm active compound + ammonium sulphate and rapeseed oil methyl ester.
[11] abbreviates: 20 ppm active compound + rapeseed oil methyl ester 1000 ppm.
[12] abbreviates: with ammonium sulphate (2 kg/ha).
Where [13] appears, read: with ammonium sulphate (2 kg/ha) and Genapol LRO (1 l/ha).
The mark [14] stands for this setting: 4 ppm active compound + ammonium sulphate 1000 ppm.
[15] abbreviates: 4 ppm active compound + ammonium sulphate and rapeseed oil methyl ester.
Setting [16] is: 4 ppm active compound + rapeseed oil methyl ester 1000 ppm.

Experimental findings from US8889592B2, “Insecticidal and/or herbicidal composition having improved activity based on spiroheterocyclically substituted tetramic acid derivatives” (Bayer CropScience AG, priority 2010, dated 2014) are described below.

In the case of `CON1CCC2(CC1)NC(=O)C(c1cc(C)ccc1C)=C2O` [Example I-a-1], the “Penetration after 24 h/% EC” value in data set [1] (500 ppm in DMF/emulsifier W 7:1 (w/w), no additive) was determined as 0.7%. Besides, in data set [1] (with ammonium sulphate), the “Penetration after 24 h/% EC + AS (1 g/D)” value is given as 17%. Besides, the “Penetration after 24 h/% EC + DAHP (1 g/l)” value in data set [1] (with diammonium hydrogenphosphate) came to 15%. Further, in data set [1] (with rapeseed oil methyl ester), the “Penetration after 24 h/% EC + RME (1 g/l)” value is 1.7%. Also, the “Penetration after 24 h/% EC + RME (1 g/l) + AS (1 g/l)” value in data set [1] (with rapeseed oil methyl ester and ammonium sulphate) is recorded as 21%. For the same compound, the “Penetration after 24 h/% EC + RME (1 g/l) + DAHP (1 g/l)” value in data set [1] (with rapeseed oil methyl ester and diammonium hydrogenphosphate) came to 28%. For the same compound, the “Kill (%) after 6 d +AS 1000 ppm” value in data set [2] (setting [9]) stood at 0%. In addition, in data set [2] (setting [10]), the “Kill (%) after 6 d +AS + RME per 1000 ppm” value (from here on “Kill (%) … per 1000 ppm”) is 60%. In data set [2] (setting [11]), the “Kill (%) after 6 d +RME 1000 ppm” value turned out to be 0%. In addition, in data set [2] (20 ppm active compound), the “Kill (%) after 6 d” value came out at 0%.
With `CCc1cc(C)cc(CC)c1C1=C(O)C2(CCN(OC)CC2)NC1=O` [Example I-a-3], the “herbicidal effect, a.i. + GE” value in data set [3] (with Genapol LRO (1 l/ha)) worked out at 20%; in data set [4] (with Genapol LRO (1 l/ha)), 70%; in data set [5] (with Genapol LRO (1 l/ha)), 50%; in data set [6] (with Genapol LRO (1 l/ha)) it was 20%. The “herbicidal effect, a.i. + AS” value is listed as 0% in data set [3] (setting [12]), 0% in data set [4] (setting [12]), 40% in data set [5] (setting [12]) and 0% in data set [6] (setting [12]). Moreover, the “herbicidal effect, a.i. + AS + GE” value came out at 60% in data set [3] (setting [13]), 90% in data set [4] (setting [13]), 80% in data set [5] (setting [13]) and 60% in data set [6] (setting [13]). The “herbicidal effect, a.i.” value is on record as 0% in data set [3] (post-emergence, no adjuvant); 0% in data set [4] (post-emergence, no adjuvant); 20% in data set [5] (post-emergence, no adjuvant); 0% in data set [6] (post-emergence, no adjuvant). The “Penetration after 48 h/% EC” value in data set [7] worked out at 1%. The “Penetration after 48 h/% EC + AS (0.7 g/l)” value in data set [7] turned out to be 9%. Also, in data set [7], the “Penetration after 48 h/% EC + RME (1 g/l)” value is 9%. Also, the “Penetration after 48 h/% EC + RME (1 g/l) + AS (0.7 g/l)” value in data set [7] is recorded as 33%.
With `CCON1CCC2(CC1)NC(=O)C(c1c(C)cc(C)cc1C)=C2O` [Example I-a-4], in data set [7], the “Penetration after 48 h/% EC” value is on record as 0%, the “Penetration after 48 h/% EC + AS (0.7 g/l)” value came out at 3%, the “Penetration after 48 h/% EC + RME (1 g/l)” value worked out at 6% and the “Penetration after 48 h/% EC + RME (1 g/l) + AS (0.7 g/l)” value was found to be 17%.
As to `CON1CCC2(CC1)NC(=O)C(c1c(C)cc(C)cc1C)=C2O` [I-a-2], the “Kill (%) after 6 d +AS 1000 ppm” value in data set [2] (0.8 ppm active compound + ammonium sulphate 1000 ppm) was 0%; in data set [2] (setting [14]), 55%; in data set [8] (setting [14]), 0%; in data set [8] (setting [9]), 85%. Moreover, the “Kill (%) … per 1000 ppm” value in data set [2] (0.8 ppm active compound + ammonium sulphate and rapeseed oil methyl ester) is listed as 90%; in data set [2] (setting [15]), 95%; in data set [8] (setting [15]) it was 90%; in data set [8] (setting [10]), 95%. In addition, the “Kill (%) after 6 d +RME 1000 ppm” value in data set [2] (0.8 ppm active compound + rapeseed oil methyl ester 1000 ppm) worked out at 0%; in data set [2] (setting [16]), 60%; in data set [8] (setting [16]), 40%; in data set [8] (setting [11]), 95%. The “Kill (%) after 6 d” value in data set [2] (0.8 ppm active compound), in data set [2] (4 ppm active compound), in data set [8] (4 ppm active compound) and in data set [8] (20 ppm active compound) was 0% each time.
For the compound `CCOC(=O)OC1=C(c2cc(C)ccc2C)C(=O)NC12CCN(OC)CC2` [I-c-1], the “Kill (%) after 6 d +AS 1000 ppm” value in data set [2] (setting [9]) and in data set [8] (setting [9]) was 0% throughout. The “Kill (%) … per 1000 ppm” value in data set [2] (setting [10]) was 98%; in data set [8] (setting [10]), 90%. Further, the “Kill (%) after 6 d +RME 1000 ppm” value in data set [2] (setting [11]) was found to be 20%; in data set [8] (setting [11]) it was 80%. In addition, the “Kill (%) after 6 d” value in data set [2] (20 ppm active compound) and in data set [8] (20 ppm active compound) was 0% each time.
